Assay results taken from patent publication US20030109525A1, “Crystalline thiazine oxazolidinones” (PHARMACIA & UPJOHN COMPANY, priority 2001, published 2003).

What was measured:
[1] = Bulk drug stability (storage at elevated temperature and humidity, HPLC assay); type: physicochemical
Method: As referred to in the present application, “stable” in bulk drug stability tests means that at least about 90% by weight, preferably at least about 95% by weight, and more preferably at least about 99% by weight of the bulk drug remains unchanged after storage under the indicated conditions for the indicated time.
Aliquots (about 0.3 mg) of bulk anhydrous crystalline N-({(5S)-3-[4-(1,1-dioxido-4-thiomorpholinyl)-3,5-difluorophenyl]-2-oxo-1,3-oxazolidin-5-yl}methyl)acetamide were weighed into 2-mL vials. The uncapped vials were placed either in a 75% relative humidity chamber (desiccator containing water saturated with sodium chloride) or in a dry chamber (desiccator containing Drierite). The chambers were placed in temperature controlled cabinets at 56° C. and 70° C. A single vial was removed from each desiccator at selected time points and was assayed using high pressure liquid chromatography (HPLC).

[2] = Hygroscopicity by dynamic moisture sorption gravimetry (DMSG); type: physicochemical; conditions: 25° C.
Method: X-ray diffraction (XRD) patterns were measured on a Scintag X2 diffractometer (Thermo ARL, Ecublens, Switzerland) equipped with a theta-theta goniometer. Single crystal x-ray diffraction was carried out on a Bruker SMART 6K CCD Area Detector diffractometer (Bruker AXS, Karlsruhe, Germany). Mass spectrometry (MS) (ionization type) was carried out on a Micromass Platform II spectrometer (Micromass, Manchester, United Kingdom). High pressure liquid chromatography (HPLC) was carried out on an Agilent 1100 Series chromatograph (Agilent Technologies, Palo Alto, Calif.). Melting points were determined using a TA Instruments 2920 differential scanning calorimeter (TA Instruments, New Castle, Del.) module with a Thermal Analyst 5000 controller. Hygroscopicity was assessed by dynamic moisture sorption gravimetry (DMSG) using a Controlled Atmosphere Microbalance (Pharmacia Corp., Kalamazoo, Mich.). All chemicals used are available from Aldrich Chemical Co., Milwaukee, Wis., unless otherwise specified. N-({(5S)-3-[3,5-difluoro-4-(4-thiomorpholinyl)phenyl]-2-oxo-1,3-oxazolidin-5-yl}methyl)acetamide was prepared as described in PCT International Publication Number WO 01/98297 (Barbachyn et al.).
DMSG isotherms were collected on the variable temperature controlled atmospheric microbalance. Approximately 10 mg samples were used in the balance. […] The mass was then measured every two minutes. […]

SMILES: CC(=O)NC[C@H]1CN(c2cc(F)c(N3CCS(=O)(=O)CC3)c(F)c2)C(=O)O1 [Anhydrous Crystalline Form, N-({(5S)-3-[4-(1,1-dioxido-4-thiomorpholinyl)-3,5-difluorophenyl]-2-oxo-1,3-oxazolidin-5-yl}methyl)acetamide]
- Bulk drug stability, % of initial HPLC peak area ([1]; 56° C., 75% relative humidity, Day 6): 100.1%
- Bulk drug stability, % of initial HPLC peak area ([1]; 56° C., 75% relative humidity, Day 13): 99.3%
- Bulk drug stability, % of initial HPLC peak area ([1]; 56° C., 75% relative humidity, Day 27): 99.9%
- Bulk drug stability, % of initial HPLC peak area ([1]; 56° C., 75% relative humidity, Day 61): 100.1%
- Bulk drug stability, % of initial HPLC peak area ([1]; 56° C., dessicator, Day 6): 100.1%
- Bulk drug stability, % of initial HPLC peak area ([1]; 56° C., dessicator, Day 13): 99.4%
- Bulk drug stability, % of initial HPLC peak area ([1]; 56° C., dessicator, Day 27): 100.0%
- Bulk drug stability, % of initial HPLC peak area ([1]; 56° C., dessicator, Day 61): 99.8%
- Bulk drug stability, % of initial HPLC peak area ([1]; 70° C., 75% relative humidity, Day 6): 100.1%
- Bulk drug stability, % of initial HPLC peak area ([1]; 70° C., 75% relative humidity, Day 13): 99.6%
- Bulk drug stability, % of initial HPLC peak area ([1]; 70° C., 75% relative humidity, Day 27): 99.9%
- Bulk drug stability, % of initial HPLC peak area ([1]; 70° C., 75% relative humidity, Day 61): 99.9%
- Bulk drug stability, % of initial HPLC peak area ([1]; 70° C., dessicator, Day 6): 100.1%
- Bulk drug stability, % of initial HPLC peak area ([1]; 70° C., dessicator, Day 13): 99.7%
- Bulk drug stability, % of initial HPLC peak area ([1]; 70° C., dessicator, Day 27): 100.0%
- Bulk drug stability, % of initial HPLC peak area ([1]; 70° C., dessicator, Day 61): 100.0%
- Bulk drug stability in aging tests (in words) ([1]; aging tests): excellent bulk drug stability
- Hygroscopicity ([2]; dynamic moisture sorption scan 0 to 87% relative humidity): not hygroscopic
- Moisture picked up during dynamic moisture sorption scan ([2]; scan from 0 to 87% relative humidity, 3% humidity steps, equilibrium time not more than 180 minutes per step): approximately 0.2%
